From US8030047B2, “Active truncated form of the RNA polymerase of flavivirus” (priority 2003, dated 2011) come the findings set out here.

One assay has as its target T1, NS5PolWNV (West Nile virus, UniProt Q9Q6P4, K2808N/V2900A).
T1 construct: His-tag; made in house
Briefly: RNA polymerase activity of NS5PolWNV on homopolymeric template poly(rC), [3H]-GTP incorporation. The settings on record: poly(rC) without primer; GTP 100 mM (so in the source); [3H]-GTP incorporation after 15 min. The assay is classed as biochemical, West Nile virus (strain New York 99).

A further assay deals with T2, NS5PolDV (Dengue virus type 2, UniProt P14340).
T2 construct: The junction (or where the Pol domain starts) is located at amino acid 272; His-tag; made in house; host or cells: E. coli BL21[pDNAy], plasmid pQE30
The assay is described as follows: RNA polymerase activity of NS5PolDV on homopolymeric template poly(rC), [3H]-GTP incorporation. The assay is classed as biochemical, Dengue virus (subtype 2, Strain New Guinea C). The settings on record: for IC50: poly(rC) without primer, GTP 10 mM (so in the source), NS5PolDV 60 nM, [3H]-GTP incorporation after 15 min. The method, then: (§1) Activity was tested on three homopolymeric templates: poly(rC), poly(rU) and poly(rA). Only poly(rC) resulted to be a productive template for NS5PolDV. This was illustrated in FIG. 4 based on the following protocol: RNA polymerase activity was tested on a homopolymeric RNA template (polycytidylic acid, Amersham Biosciences) of an average length of 360 nt. A standard assay was carried out in 50 mM HEPES buffer, pH 8.0, 10 mM KCl, 5 mM MgCl2, 5 mM MnCl2, 10 mM DTT containing 1 μM template, […] primer GG, 10 μM GTP, 0.01 mCi [3H]-GTP per μl reaction mixture and the concentration of enzyme given below. Reactions were carried out at 30° C. for given time periods and stopped by spotting a sample on DEAE filter discs (Whatman) presoaked with 50 mM EDTA. Filters were washed 3×10 min with 300 mM (NH4)2SO4 buffer, pH 8.0 and 2×5 min with EtOH and air-dried. Liquid scintillation fluid was added and incorporation in counts per minute (cpm) determined by using a Wallac MicroBeta TriLux Liquid Scintillation Counter.
A: Influence of specific E. coli RNA polymerase inhibitor rifampicin on NS5PolDV and E. coli polymerase (control). NS5PolDV was tested using the conditions given above at 64-nM enzyme concentration. E. coli RNA polymerase was obtained from USBiochemicals and used in NS5PolDV standard reaction buffer at 37 nM.
In FIG. 5, the steady-state Km determination of GTP with various ligands was performed as follows: RNA polymerase activity was tested under conditions given in the description set forth above in the experiments related to FIG. 4 without the use of a primer. Initial velocities were determined over a time period of 5 min. GTP concentrations in the range of 2 to 500 μM were tested using poly(rC) at 1 μM. Template poly(rC) was tested in the range of 2 to 1000 nM with GTP fixed at 200 μM.
Initial velocities were determined on poly(rC) at 10 mM GTP and compared to corresponding values without inhibitor. […] Since these inhibition results are not identical, questions related to the putative interference of the capping domain remain when using the full-length polymerase.

In the next assay the target is T3, full-length NS5DV (Dengue virus type 2, UniProt P14340).
T3 construct: His-tag; made in house; host or cells: E. coli BL21[pDNAy], plasmid pQE30
The assay is described as follows: RNA polymerase activity of full-length NS5DV on poly(rC). The conditions noted are these: inhibitor 10 mM, 10 mM GTP, read-out: Initial velocity compared to the protein without inhibitor. Type of assay: biochemical, Dengue virus (subtype 2, Strain New Guinea C). The procedure:
as §1, with “Filters were washed 3×10 min with 300 mM (NH4)2SO4 buffer, pH 8.0 and 2×5 min with EtOH and air-dried.” left out
In FIG. 5, the steady-state Km determination of GTP with various ligands was performed as follows: RNA polymerase activity was tested under conditions given in the description set forth above in the experiments related to FIG. 4 without the use of a primer. Initial velocities were determined over a time period of 5 min. […]
Initial velocities were determined on poly(rC) at 10 mM GTP and compared to corresponding values without inhibitor. […]

T1 sequence (Q9Q6P4 2802-3433 K2808N/V2900A): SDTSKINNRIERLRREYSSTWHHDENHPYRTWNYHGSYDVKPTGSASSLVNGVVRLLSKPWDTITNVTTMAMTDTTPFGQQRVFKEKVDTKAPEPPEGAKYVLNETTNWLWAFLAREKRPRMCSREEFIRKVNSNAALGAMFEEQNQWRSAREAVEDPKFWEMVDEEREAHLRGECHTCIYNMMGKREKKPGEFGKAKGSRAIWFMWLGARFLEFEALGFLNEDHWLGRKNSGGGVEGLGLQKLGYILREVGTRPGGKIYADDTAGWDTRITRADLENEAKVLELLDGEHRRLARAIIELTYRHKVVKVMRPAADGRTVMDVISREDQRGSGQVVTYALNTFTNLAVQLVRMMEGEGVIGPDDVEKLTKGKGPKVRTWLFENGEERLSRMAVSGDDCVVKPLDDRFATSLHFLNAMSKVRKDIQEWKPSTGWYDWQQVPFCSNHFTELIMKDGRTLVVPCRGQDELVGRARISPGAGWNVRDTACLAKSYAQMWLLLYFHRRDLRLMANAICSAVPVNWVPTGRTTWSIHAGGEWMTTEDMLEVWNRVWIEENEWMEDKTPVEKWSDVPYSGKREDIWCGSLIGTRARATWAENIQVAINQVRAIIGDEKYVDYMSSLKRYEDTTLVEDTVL

On to 3′-dioxolane 3′-deoxy GTP, for which the figures for the IC50 at NS5PolWNV and against NS5PolDV were 58000 nM and 1200 nM, respectively. On to `Nc1nc2c(ncn2[C@H]2CC[C@@H](COP(=O)(O)OP(=O)(O)OP(=O)(O)O)O2)c(=O)[nH]1` [2′,3′-dideoxy GTP], for which half-maximal inhibition against NS5PolDV (IC50) was put at 800 nM. Consider `CO[C@@H]1[C@H](O)[C@@H](COP(=O)(O)OP(=O)(O)OP(=O)(O)O)O[C@H]1n1cnc2c(=O)[nH]c(N)nc21` [2′-O-methyl-GTP], for which the activity at 10000 µM on full-length NS5DV was 19.3%; at NS5PolDV (read-out: Initial velocity compared to the protein without inhibitor), 29.3%. Further, half-maximal inhibition at NS5PolDV (IC50) was put at 5600 nM. `Nc1nc2c(ncn2[C@@H]2O[C@H](COP(=O)(O)OP(=O)(O)OP(=O)(O)O)C[C@H]2O)c(=O)[nH]1` [3′-deoxy GTP] registered an IC50 against NS5PolDV of 20 nM. In other words, the double-digit nanomolar range.
